The numbers were not newly measured in US20190202814A1, “PROCESSES FOR PREPARATION OF EMPAGLIFLOZIN” (CADILA HEALTHCARE LIMITED, priority 2015, published 2019), which cites them from elsewhere.

Molecules are shown by their SMILES.

The conditions of data set [1]: crystalline solid.

With `OC[C@H]1O[C@@H](c2ccc(Cl)c(Cc3ccc(O[C@H]4CCOC4)cc3)c2)[C@H](O)[C@@H](O)[C@@H]1O` [Empagliflozin, (1S)-1,5-anhydro-1-{4-chloro-3-(4-[(3S)-tetrahydrofuran-3-yloxy]benzyl}phenyl)-D-glucitol], the hygroscopicity entry in data set [1] is listed as “non-hygroscopic”. For the same compound, where the note is “acetonitrile”, the solubility in acetonitrile entry is “very slightly soluble”. For the setting “ethanol”, the solubility in ethanol entry is “very slightly soluble”. Further, for the setting “methanol”, the solubility in methanol result is listed as “sparingly soluble”. Besides, the solubility in toluene result (toluene) was “practically insoluble”. Besides, where the note is “water”, the solubility in water entry is reported as “very slightly soluble”.
